The values that follow are results of earlier work, collected in paper PMC12145446, “Development of an AI model for DILI-level prediction using liver organoid brightfield images” (Communications Biology, 2025).

Usually Cmax stands for the maximum level reached in the sampled fluid or tissue.

The conditions of data set [1]: cited from earlier work; for Label section / Severity class: DILIrank; for Label section: FDA drug label section; for DILIrank: FDA DILIrank category based on clinical data.
The conditions of data set [2]: peak serum concentration used as dosing reference; source not given; cited from earlier work.

Regarding `O=C1CC2(CCCC2)CC(=O)N1CCCCN1CCN(c2ncccn2)CC1` [Buspirone], in data set [1], the Label section result is recorded as “Adverse reactions”, the Severity class is reported as 3 and the DILIrank entry is listed as “Ambiguous DILI-concern”. For the same compound, the peak concentration (Cmax) in data set [2] was 1.92 ng/mL.
With `CC(C)C(=O)Nc1ccc([N+](=O)[O-])c(C(F)(F)F)c1` [Flutamine], in data set [1], the Label section result was “Box warning”, the Severity class is recorded as 8 and the DILIrank result was “vMost-DILI-Concern”. Further, in data set [2], the maximum concentration (Cmax) was 100 ng/mL.
For the compound `C#Cc1cccc(Nc2ncnc3cc(OCCOC)c(OCCOC)cc23)c1` [Erlotinib], in data set [1], the Label section entry was “Warnings and precautions”; the Severity class was 8; the DILIrank entry was “vMost-DILI-Concern”. In data set [2], the Cmax is 1200 ng/mL.
On to `CCN(CC)CC(=O)Nc1c(C)cccc1C` [Lidocaine], for which, in data set [1], the Label section result is listed as “No match” and the Severity class is reported as 0.
For `CCc1oc2ccccc2c1C(=O)c1cc(Br)c(O)c(Br)c1` [Benzbromarone], in data set [1], the Label section entry is given as “Withdrawn”, the Severity class is recorded as 8 and the DILIrank entry is on record as “vMost-DILI-Concern”. In data set [2], the highest concentration (Cmax) was 1840 ng/mL.
For the compound `CN(C)CCOC(c1ccccc1)c1ccccc1` [Diphenhydramine], in data set [1], the Label section entry is given as “No match” and the Severity class was 0.
Consider `O=C(O)Cc1ccccc1Nc1c(Cl)cccc1Cl` [Diclofenac], for which, in data set [1], the Label section result was “Warnings and precautions”; the Severity class is 8; the DILIrank entry is recorded as “vMost-DILI-Concern”.
With `Cc1c(C)c2c(c(C)c1O)CCC(C)(COc1ccc(CC3SC(=O)NC3=O)cc1)O2` (stereo not shown) [Troglitazone], in data set [1], the Label section entry is recorded as “Withdrawn”, the Severity class is given as 8 and the DILIrank result is on record as “vMost-DILI-Concern”. The peak concentration (Cmax) in data set [2] was 2820 ng/mL.
On to `COc1ccccc1Oc1c(NS(=O)(=O)c2ccc(C(C)(C)C)cc2)nc(-c2ncccn2)nc1OCCO` [Bosentan], for which, in data set [1], the Label section result is “Box warning”, the Severity class was 7 and the DILIrank entry is “vMost-DILI-Concern”. Further, the Cmax in data set [2] was 2286 ng/mL.
As for `CCN(CC)C(=O)/C(C#N)=C/c1cc(O)c(O)c([N+](=O)[O-])c1` [Entacapone], in data set [1], the Label section entry was “No match”, the Severity class is reported as 0 and the DILIrank result is “vLess-DILI-Concern”. In data set [2], the Cmax is 1000 ng/mL.
With `Cc1ccc(C(=O)c2cc(O)c(O)c([N+](=O)[O-])c2)cc1` [Tolcapone], in data set [1], the Label section entry is “Box warning (withdrawn)”, the Severity class is 8 and the DILIrank entry is “vMost-DILI-Concern”. In addition, in data set [2], the Cmax was 13000 ng/mL.
Regarding `CC(=O)Nc1ccc(O)cc1` [Acetaminophen], the Label section result in data set [1] was “Warnings and precautions”.
Turning to `Cc1cn([C@H]2C=C[C@@H](CO)O2)c(=O)[nH]c1=O` [Stavudine], in data set [1], the Label section result is “Box warning”, the Severity class is 8 and the DILIrank entry is given as “vMost-DILI-Concern”. For the same compound, in data set [2], the peak concentration (Cmax) is 776.4 ng/mL.
`CC(c1cc2ccccc2s1)N(O)C(N)=O` (stereo not shown) [Zileuton]: in data set [1], the Label section result was “Warnings and precautions”; the Severity class is given as 5; the DILIrank entry is recorded as “vMost-DILI-Concern”. In addition, the Cmax in data set [2] was 3100 ng/mL.
Take `Cc1nc(Nc2ncc(C(=O)Nc3c(C)cccc3Cl)s2)cc(N2CCN(CCO)CC2)n1` [Dasatinib]: in data set [1], the Label section entry is “Adverse reactions”, the Severity class was 4 and the DILIrank result is listed as “vLess-DILI-Concern”. For the same compound, the peak concentration (Cmax) in data set [2] is 129 ng/mL.
